Tests used:
[1] = tested on: M13 single-stranded genomes, containing one KP1212 base at a specific site; test: primer extension at various pHs on M13 genome containing KP1212, PCR and REAP assay (mutagenesis); type: biochemical
Procedure: The method of evaluating the mutagenicity of a compound allows for analyzing the product of a primer extension reaction (by itself a trivial reaction, even if run at different pHs) with the REAP method (this method was published in Delaney, J. C. & Essigmann, J. M., Methods Enzymol. 408, 1-15 (2006)). The methods involve a custom primer, of the form 5′-B-A-3′ and the following protocol. The A sequence is the actual primer for the extension reaction, and by itself has a low (about 37° C.) melting temperature. […] Its melting temperature is high, at about 70° C. The template of the primer extension reaction is an M13 genome containing at a specific site a modified base (or nucleoside analog). After the primer extension reaction, a PCR reaction is run using two primers; primer 1 is the forward primer used in the REAP method (or a primer annealing on the M13 genome upstream of the lesion site); primer 2 is exactly the sequence B. This method guarantees that only the primer extension product will be PCR amplified, and amplification will not depend on the yield of the primer extension reaction. Therefore, this method allows to detect and analyze mutagenic consequences (including rare events) of nucleoside analogs in a variety of conditions, where the type of polymerase, pH, ionic strength, salt concentration, and inhibitors can be varied over a large range of possibilities.
The M13 single-stranded genomes, containing one KP1212 base at a specific site were constructed and purified as previously reported (Li, Fedeles, Singh, Peng et al, 2014, Tautomerism provides a molecular explanation for the mutagenic properties of the anti-HIV nucleoside 5-aza-5,6-dihydro-2′-deoxycytidine, Proc. Natl. Acad. Sci. U.S.A. 111, E3252-3259). […]
The PCR products were subsequently purified and analyzed with the REAP assay as previously described (Li, Fedeles, Singh, Peng et al, 2014, Tautomerism provides a molecular explanation for the mutagenic properties of the anti-HIV nucleoside 5-aza-5,6-dihydro-2′-deoxycytidine. Proc. Natl. Acad. Sci. U.S.A. 111, E3252-3259). […]

[2] = pH-dependent 1D FTIR / 2D IR spectroscopy of KP1212 in aqueous solutions (pKa); type: physicochemical; conditions: aqueous (D2O) solutions, pH* varied from 1.6 to 13.9; 1D and/or 2D IR spectroscopy, 25° C.
Procedure: FIGS. 1A to 1E. FIG. 1A: pH-dependent (Fourier transform infrared) FTIR spectra of KP1212 from pH* 1.6 (red or thin solid line) to 13.9 (blue or thick solid line) at 25° C. FIG. 1B: populations of protonated, neutral, and deprotonated KP1212 as a function of pH* obtained from the first three components of singular value decomposition (SVD) analysis. The solid lines show fits of the Henderson-Hasselbalch equation with pKa1 and pKa2. FIGS. 1C to 1E: SVD reconstructed IR spectra representative for the protonated (FIG. 1C), neutral (FIG. 1D), and deprotonated (FIG. 1E) KP1212. The grey curves, labeled A, in FIG. 1C and FIG. 1D are the experimental FTIR spectra of 1-(1′,4′-cyclohexadienyl)-2-methylaminopropane (CMP) at pH* 1.6 and 7.4, respectively. The pH* is the pH measured in D2O, as measured with a pH meter. The FTIR experiments were run in D2O.
An in vitro assay has been developed that allowed the measurement of the mutation type and rate of KP1212 at different pH values, and the mutagenic properties of KP1212 have been evaluated at pH 6-8. […] By simply changing the pH of a composition (e.g., a bodily fluid or aqueous solution) containing KP1212 to 5.9, KP1212 achieves its optimal mutagenicity of about 50%.
For both 1D FTIR and 2D IR experiments, the H/D exchanged KP1212 was dissolved at a concentration of 20 mg/ml (88 mM) in 0.5 M phosphate buffer pD (pH reading in D2O) 7.9. […]

[3] = tested on: single-stranded vector containing a single KP1212; test: in vitro and in vivo replication of a single-stranded vector containing a single KP1212
From the text: Mutagenic nucleoside analogs may act through lethal mutagenesis. Lethal mutagenesis is a strategy whereby the innate immune system or mutagenic pool nucleotides increase the error rate of viral replication above the error catastrophe limit. Lethal mutagenesis can also increase the mutation rate of the DNA and/or RNA of cancer cells (e.g., cancer cells with a mutator phenotype) to over the error catastrophe limit and thus show genotoxicity and/or mitochondrial toxicity against the cancer cells. Lethal mutagenesis is proposed as a mechanism for several anti-viral compounds, including Ribavirin, which is useful for treating RS virus infection (RSV) and KP1212, a dihydro base which causes A to G and G to A mutations in HIV. […] The mutagenic properties of KP1212 were determined empirically by in vitro and in vivo replication of a single-stranded vector containing a single KP1212. […] A model is proposed that correlates the mutagenicity of KP1212 with its tautomeric distribution in solution. When incorporated into HIV DNA by RT, KP1212 allows DNA synthesis to continue. However, the modified base of KP1212 is able to tautomerize and base-pair alternately with guanine and adenine. […] Variable temperature (VT) nuclear magnetic resonance (NMR) techniques have allowed the identification of compounds capable of multiple tautomerism.

HIV = conditions: Phase I and II; active form of the pro-drug KP1461; cited from earlier work

Structure (SMILES): NC1=NC(=O)N([C@H]2C[C@H](O)[C@@H](CO)O2)CN1 [KP1212, 5-aza-5,6-dihydro-2′-deoxycytidine]
- mutagenesis ([1]; at pH 5.9): about 50%
- mutagenesis ([1]; at pH 8): about 10%
- C-to-T mutations in dependence on pH ([1]; pH 5.5-8.5): more C-to-T mutations as the pH decreases
- pKa [2]: ~7
- mutagenicity [3]: 10%
- C-to-T mutations ([3]; in vivo, when present in a template strand): about 10%
- paired with adenine, share of the time ([3]; under physiological conditions): about 10%
- paired with guanine, share of the time ([3]; under physiological conditions): approximately 90%
- safety in clinical trials (HIV): safe

Source: US9714265B2, “Mutagenic nucleoside analogs and uses thereof” (Massachusetts Institute of Technology, priority 2015, dated 2017)
